This note sets out measurements from US20140193802A1, “IDENTIFICATION OF AN ALTERED THERAPEUTIC SUSCEPTIBILITY TO ANTI-HCMV COMPOUNDS AND OF A RESISTANCE AGAINST ANTI-HCMV COMPOUNDS” (priority 2012, published 2014).

What is called EC50 is the concentration giving half of the maximal effect.

Where “and” joins values, the source holds several entries; their conditions need not be identical. Equal entries are not always repeated. Where two headings read alike, the source gives them in different places.

Holding throughout (type): cell-based, human cytomegalovirus (HCMV)
One assay relates to RV-HG UL56-V231L. Briefly: GFP-RA, marker transfer mutant. The following applies: for EC50: Human betaherpesvirus 5, RV-HG UL56-V231L, fluorescence reduction assay, mean ± SD, read-out: EC50. As to the method:
(§1) HCMV Fluorescence Reduction Assay (GFP-RA)
(§2) The susceptibilities of recombinant HCMV laboratory strains expressing GFP were determined by a GFP-based fluorescence reduction assay. For standard assays, 1.5×10^4 NHDF cells/well were cultured in black 96-well plates (Greiner Bio-One, Germany) and infected with either HCMV-GFP (MOI, 0.1) or RV-HG (MOI, 0.2 to 0.5). After virus adsorption, the virus inoculum was replaced with 200 μl fresh medium. Thereafter, 100 μl medium containing the test compounds was added to wells of horizontal row G, followed by serial 3-fold dilutions up to row A. All drug concentrations were tested at least in duplicate. Wells of the horizontal row H served as the virus control. Plates were incubated at 37° C. for 7 days. The medium was replaced by 200 μl PBS, and GFP units (GFPU) were determined by a charge-coupled-device-camera-based fluorescence detector (FluoBox; Bayer Technology Services GmbH, Leverkusen, Germany), which captures 96 images simultaneously. Drug effects were calculated as a percentage of reduction in GFPU in the presence of each drug concentration compared to the GFPU determined in the absence of drug. EC50 and EC90 values (drug concentrations producing 50% and 90% reduction in GFPU) were calculated using nonlinear regression curve fit with a variable slope. GraphPad Prism 3.02 or 4.0 software (GraphPad Software Inc., La Jolla, Calif.) was used for all analyses.
(§3) The HCMV AD169-derived bacterial artificial chromosome (BAC) pHG served as the backbone for the construction of the mutant viruses. The markerless introduction of point mutations into pHG was done using a two-step recombination protocol according to the en passant method. Briefly, a recombination fragment containing the I-SceI-AphAI cassette from plasmid pEPKan-S was obtained by PCR using primers containing ˜60 bp of homology to the intended integration site in ORF UL56 of BAC pHG and ˜20 bp specific for pEPKan-S. This fragment was electroporated into Escherichia coli GS1783 that harbored the pHG BAC. […] After successful kanamycin selection, all non-HCMV sequences were removed by an intrabacterial ISceI digest and a subsequent second Red recombination, resulting in the scarless repair of the mutated UL56 gene in the background of BAC pHG. The integrity of the generated BACs was confirmed by restriction enzyme digestion and sequencing. To reconstitute virus mutants, the recombinant BACs were transfected into permissive MRC5 cells. At least two independent virus clones per mutation were generated and evaluated.

The next assay concerns RV-HG UL56-R369M. Briefly: GFP-RA, marker transfer mutant. To be noted: for EC50: Human betaherpesvirus 5, RV-HG UL56-R369M, fluorescence reduction assay, mean ± SD, read-out: EC50. The protocol:
as §1, §2, §3

The subject of another assay is RV-HG UL56-L241P. Briefly: GFP-RA, marker transfer mutant. The following applies: for EC50: Human betaherpesvirus 5. As to the method:
as §1, §2, §3

A further assay has as its system RV-HG UL56-R369S. Briefly: GFP-RA, marker transfer mutant. The following applies: for EC50: Human betaherpesvirus 5, RV-HG UL56-R369S, fluorescence reduction assay, mean ± SD, read-out: EC50. The protocol:
as §1, §2, §3

Another assay deals with RV-HG UL56-V236M. Briefly: GFP-RA, marker transfer mutant. To be noted: for EC50: Human betaherpesvirus 5. The protocol: as §1, §2, §3
In the next assay the test system is RV-HG UL56-C325Y. Briefly: GFP-RA, marker transfer mutant. The following applies: for EC50: Human betaherpesvirus 5. As to the method:
as §1, §2, §3

Another assay deals with RV-HG UL56-L241P/R369S. In words: GFP-RA, marker transfer mutant. To be noted: for EC50: Human betaherpesvirus 5, RV-HG UL56-L241P/R369S, fluorescence reduction assay, mean ± SD, read-out: EC50. The protocol: as §1, §2, §3
A further assay concerns HCMV strain AD169. In words: HCMV cytopathic effect reduction assay (CPE-RA). To be noted: Human betaherpesvirus 5, mean ± SD. The protocol:
HCMV Cytopathic Effect Reduction Assay (CPE-RA)
CPE-RAs were performed basically as described elsewhere (HCMV replication assay). In brief, the addition of 2 μl test compound of 50, 5, 0.5, 0.05, 0.005, and 0.0005 mM DMSO stock solutions to 100 μl cell culture medium in duplicate was followed by serial 2-fold dilutions in 96-well microtiter plates. Each well was supplemented with 150 μl of either a suspension of 1×10^4 NHDF cells mixed with cell-free HCMV (multiplicity of infection (MOI), 0.03) or a suspension of 1×10^4 to 3×10^4 HCMV-infected and uninfected NHDF cells (MOI, 0.001 to 0.002). Non-infected and non-treated cells served as controls on each plate. Final compound concentrations ranged between 250 and 0.00005 μM. Plates were incubated for 6 to 7 days at 37° C. or until the virus control reached 100% CPE. A mixture containing 20% Giemsa stain (Merck) and 5% formalin solution (Merck) was added to the wells for fixation and staining. After extensive washing, plates were dried at 56° C. followed by visual evaluation using an overhead microscope (plaque magnifier; Tecnorama Zürich). Each assay was performed at least in triplicate, and standard deviations were calculated. The assay plate data were used to calculate the EC50 (CPE-RA), i.e., the concentration of drug that inhibits the CPE by 50% compared with an untreated virus-infected control.

As to `Nc1nc(O)c2ncn(COC(CO)CO)c2n1` [Ganciclovir], the EC50 in the assay with RV-HG UL56-V231L came out at 720 ± 240 nM; with RV-HG UL56-R369M, 1260 ± 640 nM; in the assay on RV-HG UL56-L241P it was 2110 ± 770 nM; with RV-HG UL56-R369S, 1960 ± 1090 nM; in the assay on RV-HG UL56-V236M, 1560 ± 330 nM; with RV-HG UL56-C325Y, 2.11 ± 0.71 µM. In addition, the EC50 in the assay with RV-HG UL56-L241P/R369S was 2.86 ± 1.16 µM; in the assay on HCMV strain AD169, 3400 ± 1500 nM.

On to `COc1cccc(N2CCN(C3=Nc4c(F)cccc4[C@H](CC(=O)O)N3c3cc(C(F)(F)F)ccc3OC)CC2)c1` [Letermovir, (S)-{8-fluoro-2-[4-(3-methoxyphenyl)-1-piperazinyl]-3-[2-methoxy-5-(trifluoromethyl)phenyl]-3,4-dihydro-4-quinazolinyl}acetic acid], for which the half-maximal effective concentration (EC50) in the assay on RV-HG UL56-V231L was 20 ± 4.7 nM; in the assay with RV-HG UL56-R369M it was 40 ± 15 nM; with RV-HG UL56-L241P (RV-HG UL56-L241P, fluorescence reduction assay, mean ± SD, read-out: EC50), 680 ± 240 nM; in the assay with RV-HG UL56-R369S, 140 ± 70 nM; with RV-HG UL56-V236M (RV-HG UL56-V236M, fluorescence reduction assay, mean ± SD, read-out: EC50) it was 70 ± 20 nM; in the assay with RV-HG UL56-C325Y (RV-HG UL56-C325Y, fluorescence reduction assay, mean ± SD, read-out: EC50), 26.4 ± 8.5 µM. The values for the EC50 with RV-HG UL56-L241P/R369S and in the assay on HCMV strain AD169 were 5.26 µM and 5.6 ± 1.6 nM, respectively. The “Resistance index (RI) = EC50 indicated RV-HG mutant/EC50 RV-HG wt” value was 5 in the assay with RV-HG UL56-V231L (RV-HG UL56-V231L vs RV-HG wt); 13 in the assay with RV-HG UL56-R369M (RV-HG UL56-R369M vs RV-HG wt); ~160 and 221 with RV-HG UL56-L241P (RV-HG UL56-L241P vs RV-HG wt); ~38 and 48 in the assay with RV-HG UL56-R369S (RV-HG UL56-R369S vs RV-HG wt); 24 in the assay on RV-HG UL56-V236M (RV-HG UL56-V236M vs RV-HG wt); 8910 in the assay with RV-HG UL56-C325Y (RV-HG UL56-C325Y vs RV-HG wt). The “Resistance index (RI) = EC50 indicated RV-HG mutant/EC50 RV-HG wt” value with RV-HG UL56-L241P/R369S (RV-HG UL56-L241P/R369S vs RV-HG wt) was 1776.
